Measured values taken from patent US20240166643A1, “IMIDAZO[1,2-A]PYRIDINE COMPOUNDS AND THEIR USE IN THERAPY” (Imperial College Innovations Limited, priority 2020, published 2024).

Experiments:
[1] = system: Plasmodium falciparum 3D7; assay: SYBR Green assay, Plasmodium falciparum strain 3D7; assay type: cell-based; details: P. falciparum strain 3D7, 96 h incubation, read-out: Pf EC50 strain 3D7
[2] = molecular target: Plasmodium vivax (Pv) NMT (Plasmodium vivax (strain Salvador I), UniProt A5K1A2); assay: biochemical
Plasmodium vivax (Pv) NMT, sequence (A5K1A2 1-410): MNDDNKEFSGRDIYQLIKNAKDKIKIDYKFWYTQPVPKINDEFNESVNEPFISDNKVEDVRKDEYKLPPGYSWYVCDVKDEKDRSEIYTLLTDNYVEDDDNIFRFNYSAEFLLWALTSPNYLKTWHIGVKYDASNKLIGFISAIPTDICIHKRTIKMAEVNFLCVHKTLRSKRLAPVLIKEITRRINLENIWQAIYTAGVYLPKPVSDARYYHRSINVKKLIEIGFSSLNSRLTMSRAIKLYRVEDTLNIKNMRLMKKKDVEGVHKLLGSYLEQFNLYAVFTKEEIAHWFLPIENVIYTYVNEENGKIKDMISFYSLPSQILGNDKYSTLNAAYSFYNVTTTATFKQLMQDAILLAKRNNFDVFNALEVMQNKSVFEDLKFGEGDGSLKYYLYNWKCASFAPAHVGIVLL

Human NMT1 (HsNMT1) = Human NMT1 (HsNMT1) (Homo sapiens, UniProt P30419); assay: biochemical
Human NMT1 (HsNMT1), sequence (P30419 whole entry, looked up): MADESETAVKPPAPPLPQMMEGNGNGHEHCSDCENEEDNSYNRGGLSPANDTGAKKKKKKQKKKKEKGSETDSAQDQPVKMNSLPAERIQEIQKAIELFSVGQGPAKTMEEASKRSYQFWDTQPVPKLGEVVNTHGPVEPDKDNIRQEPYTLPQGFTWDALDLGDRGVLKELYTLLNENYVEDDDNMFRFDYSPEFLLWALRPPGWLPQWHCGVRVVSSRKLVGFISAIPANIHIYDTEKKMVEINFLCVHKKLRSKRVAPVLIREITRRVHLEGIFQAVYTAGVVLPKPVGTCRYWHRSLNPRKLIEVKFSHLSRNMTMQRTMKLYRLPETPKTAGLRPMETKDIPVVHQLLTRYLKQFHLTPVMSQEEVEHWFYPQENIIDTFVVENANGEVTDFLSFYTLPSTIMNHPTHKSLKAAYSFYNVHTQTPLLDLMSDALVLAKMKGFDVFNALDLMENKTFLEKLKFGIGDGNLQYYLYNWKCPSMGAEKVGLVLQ

In the case of `O=C(NCc1cnc2ccccn12)C1CN(c2nc(N3CCCNCC3)ncc2Cl)C1` [Example 5], the EC50 [1] is reported as 2.5 µM and the IC50 [2] is reported as 0.014 µM.

`O=C(NCc1cnc2cc(F)ccn12)C1CN(c2nc(N3CCCNCC3)ncc2Cl)C1` [Example 21] was tested, and the EC50 [1] was 0.8 µM, the IC50 (Human NMT1 (HsNMT1)) was 0.05 µM and the IC50 [2] was 0.017 µM.

`CC1CN(c2ncc(Cl)c(N3CC(C(=O)NCc4cnc5ccccn45)C3)n2)CCN1` (stereo not shown) [Example 29] showed an EC50 [1] of 0.62 µM, an IC50 (Human NMT1 (HsNMT1)) of 0.079 µM and an IC50 [2] of 0.018 µM.

With `CC(NC(=O)C1CN(c2nc(N3CCNCC3)ncc2Cl)C1)c1cnc2ccccn12` (stereo not shown) [Example 30] the EC50 [1] was 0.96 µM, the IC50 (Human NMT1 (HsNMT1)) was 0.026 µM and the IC50 [2] was 0.0085 µM.

Molecule `CC(C)(NC(=O)C1CN(c2nc(N3CCNCC3)ncc2F)C1)c1cnc2ccccn12` [Example 32] has an EC50 [1] of 0.064 µM and an IC50 [2] of 0.0091 µM.

For `COc1cnc(N2CCNCC2)nc1N1CC(C(=O)NC(C)(C)c2cnc3ccccn23)C1` [Example 34], the EC50 [1] was 0.14 µM and the IC50 [2] was 0.0091 µM.

For `C[C@H]1CN(c2ncc(Cl)c(N3CC(C(=O)NC(C)(C)c4cnc5ccccn45)C3)n2)CCN1` [Example 37], the EC50 [1] was 0.027 µM, the IC50 (Human NMT1 (HsNMT1)) was 0.0079 µM and the IC50 [2] was 0.0084 µM.

With `C[C@H]1CN(c2ncc(F)c(N3CC(C(=O)NC(C)(C)c4cnc5ccccn45)C3)n2)CCN1` [Example 38] the EC50 [1] was 0.15 µM and the IC50 [2] was 0.014 µM.

Molecule `CN(c1ncc(F)c(N2CC(C(=O)NC(C)(C)c3cnc4ccccn34)C2)n1)C1CCNC1` (stereo not shown) [Example 40] has an EC50 [1] of 0.25 µM, an IC50 (Human NMT1 (HsNMT1)) of 0.16 µM and an IC50 [2] of 0.018 µM.

Molecule `CC1CN(c2ncc(Cl)c(N3CC(C(=O)NC(C)(C)c4cnc5ccccn45)C3)n2)C[C@@H](C)N1` (stereo partly shown) [Example 46] has an EC50 [1] of 0.057 µM.

`CC1CN(c2ncc(F)c(N3CC(C(=O)NC(C)(C)c4cnc5ccccn45)C3)n2)C[C@@H](C)N1` (stereo partly shown) [Example 47] showed an EC50 [1] of 0.14 µM, an IC50 (Human NMT1 (HsNMT1)) of 0.043 µM and an IC50 [2] of 0.0122 µM.

`CC1CN(c2ncc(F)c(N3CC(C(=O)NC(C)(C)c4cnc5ccccn45)C3)n2)C[C@H](C)N1` (stereo partly shown) [Example 49] gave an EC50 [1] of 0.057 µM, an IC50 (Human NMT1 (HsNMT1)) of 0.014 µM and an IC50 [2] of 0.0084 µM.

With `CN1CCC(N(C)c2ncc(F)c(N3CC(C(=O)NC(C)(C)c4cnc5ccccn45)C3)n2)C1` (stereo not shown) [Example 58] the EC50 [1] was 0.41 µM, the IC50 (Human NMT1 (HsNMT1)) was 0.037 µM and the IC50 [2] was 0.013 µM.

Molecule `COc1cnc(N2CCCN(C)CC2)nc1N1CC(C(=O)NC(C)(C)c2cnc3ccccn23)C1` [Example 62] has an EC50 [1] of 0.011 µM, an IC50 (Human NMT1 (HsNMT1)) of 0.005 µM and an IC50 [2] of 0.006 µM.

Work on `COc1cnc(N2CCN(C)CC2)nc1N1CC(C(=O)NC(C)(C)c2cnc3ccccn23)C1` [Example 63] yielded an EC50 [1] of 0.18 µM and an IC50 [2] of 0.071 µM.

Molecule `CN1CCN(c2ncc(F)c(N3CCC(C(=O)NC(C)(C)c4cnc5ccccn45)C3)n2)CC1` (stereo not shown) [Example 64] has an EC50 [1] of 0.85 µM, an IC50 (Human NMT1 (HsNMT1)) of 0.19 µM and an IC50 [2] of 0.02 µM.

For `C[C@@H]1CN(C)CCN1c1ncc(Cl)c(N2CC(C(=O)NC(C)(C)c3cnc4ccccn34)C2)n1` [Example 68], the EC50 [1] was 0.074 µM, the IC50 (Human NMT1 (HsNMT1)) was 0.088 µM and the IC50 [2] was 0.032 µM.

`CC1NCCN(c2ncc(Cl)c(N3CC(C(=O)NC(C)(C)c4cnc5ccccn45)C3)n2)C1C` (stereo not shown) [Example 79] was tested, and the EC50 [1] was 0.0022 µM.

With `C[C@H]1CN(c2ncc(F)c(N3CC(C(=O)NC(C)(C)c4cnc5ccccn45)C3)n2)CCN1C` [Example 82, 1-{2-[(3S)-3,4-dimethylpiperazin-1-yl]-5-fluoropyrimidin-4-yl}-N-(2-{imidazo[1,2-a]pyridin-3-yl}propan-2-yl)azetidine-3-carboxamide] the EC50 [1] was 0.094 µM, the IC50 (Human NMT1 (HsNMT1)) was 0.1 µM and the IC50 [2] was 0.043 µM.

For `C[C@H]1CN(c2ncc(Cl)c(N3CC(C(=O)NC(C)(C)c4cnc5ccccn45)C3)n2)CCN1C` [Example 83, 1-{5-chloro-2-[(3S)-3,4-dimethylpiperazin-1-yl]pyrimidin-4-yl}-N-(2-{imidazo[1,2-a]pyridin-3-yl}propan-2-yl)azetidine-3-carboxamide], the EC50 [1] was 0.15 µM and the IC50 [2] was 0.01 µM.

For `C[C@@H]1CN(c2ncc(F)c(N3CCC(C(=O)NC(C)(C)c4cnc5ccccn45)C3)n2)CCN1C` (stereo partly drawn) [Example 86, 1-{2-[(3R)-3,4-dimethylpiperazin-1-yl}-5-fluoropyrimidin-4-yl}-N-(2-{imidazo[1,2-a]pyridin-3-yl}propan-2-yl)pyrrolidine-3-carboxamide], the EC50 [1] was 0.2 µM, the IC50 (Human NMT1 (HsNMT1)) was 0.039 µM and the IC50 [2] was 0.007 µM.

In the case of `C[C@@H]1CN(c2ncc(F)c(N3CC(C)(C(=O)NC(C)(C)c4cnc5ccccn45)C3)n2)CCN1C` [Example 87, 1-{2-[(3R)-3,4-dimethylpiperazin-1-yl]-5-fluoropyrimidin-4-yl}-N-(2-{imidazo[1,2-a]pyridin-3-yl}propan-2-yl)-3-methylazetidine-3-carboxamide], the EC50 [1] is reported as > 0.76 µM, the IC50 (Human NMT1 (HsNMT1)) is reported as 0.15 µM and the IC50 [2] is reported as 0.038 µM.

`COc1cnc(N2C[C@@H](C)N(C)[C@H](C)C2)nc1N1CC(C(=O)NC(C)(C)c2cnc3ccccn23)C1` [Example 91, N-(2-{imidazo[1,2-a]pyridin-3-yl}propan-2-yl)-1-{5-methoxy-2-[(3R,5R)-3,4,5-trimethylpiperazin-1-yl]pyrimidin-4-yl}azetidine-3-carboxamide] was tested, and the EC50 [1] was 0.23 µM.

`C[C@@H]1CN(c2ncc(Cl)c(N3CC(C(=O)NC(C)(C)c4cnc5ccccn45)C3)n2)C[C@@H](C)N1C` [Example 92, 1-{5-chloro-2-[(3R,5R)-3,4,5-trimethylpiperazin-1-yl]pyrimidin-4-yl}-N-(2-{imidazo[1,2-a]pyridin-3-yl}propan-2-yl)azetidine-3-carboxamide] gave an EC50 [1] of 0.26 µM, an IC50 (Human NMT1 (HsNMT1)) of 0.055 µM and an IC50 [2] of 0.041 µM.

`COc1cnc(N2C[C@H](C)N(C)[C@@H](C)C2)nc1N1CC(C(=O)NC(C)(C)c2cnc3ccccn23)C1` [Example 94, N-(2-{imidazo[1,2-a]pyridin-3-yl}propan-2-yl)-1-{5-methoxy-2-[(3S,5S)-3,4,5-trimethylpiperazin-1-yl]pyrimidin-4-yl}azetidine-3-carboxamide] was tested, and the EC50 [1] was 0.44 µM.

With `C[C@@H]1CN(c2cc(N3CC(C(=O)NC(C)(C)c4cnc5ccccn45)C3)c(Cl)cn2)CCN1C` [Example 103, 1-{5-chloro-2-[(3R)-3,4-dimethylpiperazin-1-yl]pyridin-4-yl}-N-(2-{imidazo[1,2-a]pyridin-3-yl}propan-2-yl)azetidine-3-carboxamide] the EC50 [1] was 0.0053 µM.

`C[C@@H]1CN(c2cc(N3CC(C(=O)NC(C)(C)c4cnc5ccccn45)C3)c(F)cn2)CCN1C` [Example 104, 1-{2-[(3R)-3,4-dimethylpiperazin-1-yl]-5-fluoropyridin-4-yl}-N-(2-{imidazo[1,2-a]pyridin-3-yl}propan-2-yl)azetidine-3-carboxamide] showed an EC50 [1] of 0.035 µM.

`CN1CCN(c2cc(N3CC(C(=O)NC(C)(C)c4cnc5ccccn45)C3)c(Cl)cn2)CC1` [Example 105, 1-[5-chloro-2-(4-methylpiperazin-1-yl)pyridin-4-yl]-N-(2-{imidazo[1,2-a]pyridin-3-yl}propan-2-yl)azetidine-3-carboxamide] was tested, and the EC50 [1] was 0.018 µM.

In the case of `C[C@H]1CN(C)CCN1c1ncc(Cl)c(N2CC(C(=O)N(C)Cc3cnc4ccccn34)C2)n1` [Example 106, 1-{5-chloro-2-[(2S)-2,4-dimethylpiperazin-1-yl]pyrimidin-4-yl}-N-{imidazo[1,2-a]pyridin-3-ylmethyl}-N-methylazetidine-3-carboxamide], the EC50 [1] is reported as > 1 µM.

`C[C@@H]1CN(c2ncc(Cl)c(N3CC(C(=O)NC(C)(C)c4cnc5ccccn45)C3)n2)[C@@H](C)CN1C` [Example 109, 1-{5-chloro-2-[(2S,5R)-2,4,5-trimethylpiperazin-1-yl]pyrimidin-4-yl}-N-(2-{imidazo[1,2-a]pyridin-3-yl}propan-2-yl)azetidine-3-carboxamide] gave an EC50 [1] of 0.12 µM.

`C[C@@H]1CN(c2ncc(Cl)c(N3CC(C(=O)NC(C)(C)c4cnc5ccccn45)C3)n2)[C@H](C)CN1C` [Example 110, 1-{5-chloro-2-[(2R,5R)-2,4,5-trimethylpiperazin-1-yl]pyrimidin-4-yl}-N-(2-{imidazo[1,2-a]pyridin-3-yl}propan-2-yl)azetidine-3-carboxamide] was tested, and the EC50 [1] was 0.066 µM.

Molecule `C[C@@H]1CN(c2ncc(F)c(N3CC(C(=O)NC(C)(C)c4cnc5ccccn45)C3)n2)[C@@H](C)CN1C` [Example 111, 1-{5-fluoro-2-[(2S,5R)-2,4,5-trimethylpiperazin-1-yl]pyrimidin-4-yl}-N-(2-{imidazo[1,2-a]pyridin-3-yl}propan-2-yl)azetidine-3-carboxamide] has an EC50 [1] of 0.45 µM.

In the case of `CC(C)(NC(=O)C1CN(c2nc(N3CCCNCC3)nc3ccsc23)C1)c1cnc2ccccn12` [Example 123, 1-(2-(1,4-diazepan-1-yl)thieno[3,2-d]pyrimidin-4-yl)-N-(2-(Imidazo[1,2-a]pyridin-3-yl)propan-2-yl)azetidine-3-carboxamide], the IC50 (Human NMT1 (HsNMT1)) is reported as 0.008 µM.

In the case of `CN(C(=O)C1CN(c2nc(N3CCC(N)CC3)ncc2Cl)C1)C(C)(C)c1cnc2ccccn12` [Example 128, 1-(2-(4-aminopiperidin-1-yl)-5-chloropyrimidin-4-yl)-N-(2-(Imidazo[1,2-a]pyridin-3-yl)propan-2-yl)-N-methylazetidine-3-carboxamide], the IC50 (Human NMT1 (HsNMT1)) is reported as 0.234 µM.

With `CN(C(=O)C1CN(c2nc(N3CCCC(N)CC3)ncc2Cl)C1)C(C)(C)c1cnc2ccccn12` (stereo not shown) [Example 131, 1-(2-(4-aminoazepan-1-yl)-5-chloropyrimidin-4-yl)-N-(2-(imidazo[1,2-a]pyridin-3-yl)propan-2-yl)-N-methylazetidine-3-carboxamide] the IC50 (Human NMT1 (HsNMT1)) was 0.179 µM.

For `CN(C(=O)C1CN(c2nc(N3CC4CC3CN4)ncc2Cl)C1)C(C)(C)c1cnc2ccccn12` (stereo not shown) [Example 132, 1-(2-(2,5-diazabicyclo[2.2.1]heptan-2-yl)-5-chloropyrimidin-4-yl)-N-(2-(imidazo[1,2-a]pyridin-3-yl)propan-2-yl)-N-methylazetidine-3-carboxamide], the IC50 (Human NMT1 (HsNMT1)) was 0.19 µM.

With `C[C@H]1CN(c2ncc(Cl)c(N3CC(C(=O)N(C)C(C)(C)c4cnc5ccccn45)C3)n2)CCN1C` [Example 140, (S)-1-(5-chloro-2-(3,4-dimethylpiperazin-1-yl)pyrimidin-4-yl)-N-(2-(imidazo[1,2-a]pyridin-3-yl)propan-2-yl)-N-methylazetidine-3-carboxamide] the IC50 (Human NMT1 (HsNMT1)) was 0.146 µM.
